The target of experiment [1] is T1, human ANO6 (Homo sapiens, UniProt Q4KMQ2).
T1 construct: expressed in transfected cells
T1 sequence (Q4KMQ2 1-931 isoform Q4KMQ2-2): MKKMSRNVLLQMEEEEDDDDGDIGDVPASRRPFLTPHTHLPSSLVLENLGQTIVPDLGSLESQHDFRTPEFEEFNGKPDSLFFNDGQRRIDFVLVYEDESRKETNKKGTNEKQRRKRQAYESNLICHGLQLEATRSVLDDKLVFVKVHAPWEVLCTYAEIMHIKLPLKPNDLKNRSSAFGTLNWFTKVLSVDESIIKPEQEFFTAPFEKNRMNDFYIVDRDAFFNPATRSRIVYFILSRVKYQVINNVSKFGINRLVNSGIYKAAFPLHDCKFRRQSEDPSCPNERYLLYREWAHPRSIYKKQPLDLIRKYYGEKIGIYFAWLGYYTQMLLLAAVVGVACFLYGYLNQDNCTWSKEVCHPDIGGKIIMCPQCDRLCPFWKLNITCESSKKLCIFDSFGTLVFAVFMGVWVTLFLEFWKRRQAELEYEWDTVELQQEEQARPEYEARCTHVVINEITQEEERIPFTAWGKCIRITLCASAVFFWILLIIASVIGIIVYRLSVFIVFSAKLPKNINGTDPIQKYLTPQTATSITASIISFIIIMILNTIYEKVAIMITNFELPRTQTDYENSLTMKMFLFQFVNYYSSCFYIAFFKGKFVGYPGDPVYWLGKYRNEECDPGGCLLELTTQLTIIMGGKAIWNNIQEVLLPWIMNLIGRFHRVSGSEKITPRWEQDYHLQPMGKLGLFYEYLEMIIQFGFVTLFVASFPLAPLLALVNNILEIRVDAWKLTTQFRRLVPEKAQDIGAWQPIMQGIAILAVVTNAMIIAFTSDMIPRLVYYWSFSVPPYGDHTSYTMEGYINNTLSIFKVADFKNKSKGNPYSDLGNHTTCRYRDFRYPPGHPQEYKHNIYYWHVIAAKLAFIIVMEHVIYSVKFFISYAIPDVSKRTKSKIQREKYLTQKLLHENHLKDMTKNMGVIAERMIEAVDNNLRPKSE
Kind of experiment: LACT C2 assay (phosphatidylserine scramblase function assay). It counts as cell-based. The note with it: FRT cells expressing human ANO6, 10 μM ionomycin; for inhibition at 0.1 µM: test compound 100 nM, read-out: Inhibition Level 100 nM; for inhibition at 1 µM: test compound 1 μM, read-out: Inhibition Level 1 μM. The procedure, abridged: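 FRT cells stably expressing human ANO6 were pretreated with compound (1% DMSO) for 10 min, then stimulated with 10 μM ionomycin for 10 min. Surface phosphatidylserine was stained with 500 nM Lact-C2-GFP and quantified by imaging. Inhibition was scaled between unstimulated (100%) and ionomycin-only (0%) controls, averaged over triplicates.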

Experiment [2] addresses T1, human ANO6. Description: YFP quenching assay (ANO6 ion channel activity). It counts as cell-based. Particulars: 10 μM ionomycin; for inhibition at 1 µM: test compound 1 μM, read-out: Inhibition Level 1 μM; for inhibition at 30 µM: test compound 30 μM, read-out: Inhibition Level 30 μM. The gist of the method:
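FRT cells stably expressing human ANO6 and YFP-H148Q/I152L/F46L, preincubated 10 min at 40° C with compounds (1% DMSO) in PBS. Quench read every 0.4 s after injecting 140 mM SCN- with 10 μM ionomycin; % inhibition from the 3.6–7.6 s fluorescence difference, normalised to no-ionomycin (100%) and ionomycin-only (0%) wells, duplicate or triplicate.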

Some results are limits rather than exact numbers.

For the compound `O=C(N[C@@H]1C[C@H]1c1ccccc1)c1cccc(Nc2ccc(-c3ccccc3)cn2)c1` [Compound 115, N-[(1R,2S)-2-phenylcyclopropyl]-3-[(5-phenylpyridin-2-yl)amino]benzamide], at human ANO6 [1], the inhibition at 0.1 µM was at least 60% and the inhibition at 1 µM was at least 60%. The inhibition at 1 µM on human ANO6 [2] is at least 60%.
As to `CCOc1ccc(CNC(=O)c2cccc(Nc3ccc(-c4ccccc4)nn3)c2)cc1OCC` [Compound A54], on human ANO6 [1], the inhibition at 0.1 µM is below 30% and the inhibition at 1 µM was below 30%. For the same compound, at human ANO6 [2], the inhibition at 1 µM lay in the range of 30 to 60% and the inhibition at 30 µM was at least 60%.
For the compound `O=C(NCCc1ccccc1)c1cccc(Nc2ccc(-c3ccccc3)nn2)c1` [Compound A74], on human ANO6 [1], the inhibition at 0.1 µM is below 30% and the inhibition at 1 µM lay in the range of 30 to 60%. In addition, at human ANO6 [2], the inhibition at 1 µM is at least 60% and the inhibition at 30 µM was at least 60%.
Regarding `Cc1ccc(CNC(=O)c2cccc(Nc3cnc(-c4ccccc4)cn3)c2)o1` [Compound 1, N-[(5-methylfuran-2-yl)methyl]-3-[(5-phenylpyrazin-2-yl)amino]benzamide], the inhibition at 1 µM was at least 60% at human ANO6 [1] and 30 to 60% at human ANO6 [2]. Also, at human ANO6 [2], the inhibition at 30 µM was at least 60%.
Turning to `O=C(NCCCc1ccccc1)c1cccc(Nc2ncc(-c3cccc(F)c3)cn2)c1` [Compound 60, 3-{[5-(3-fluorophenyl)pyrimidin-2-yl]amino}-N-(3-phenylpropyl)benzamide], the inhibition at 0.1 µM on human ANO6 [1] lay within 30 to 60%. Besides, the inhibition at 1 µM at human ANO6 [1] and at human ANO6 [2] was at least 60% in each case.
`O=C(NC1CCCCCC1)c1cccc(Nc2ccc(-c3ccccc3)nn2)c1` [Compound A39]: on human ANO6 [1], the inhibition at 0.1 µM is at least 60% and the inhibition at 1 µM was at least 60%. On human ANO6 [2], the inhibition at 1 µM fell in the range of 30 to 60% and the inhibition at 30 µM was at least 60%.
Turning to `CCN(CCNC(=O)c1cccc(Nc2ccc(-c3ccccc3)nn2)c1)Cc1ccccc1` [Compound A41], at human ANO6 [1], the inhibition at 0.1 µM is below 30% and the inhibition at 1 µM fell in the range of 30 to 60%. Further, on human ANO6 [2], the inhibition at 1 µM was 30 to 60% and the inhibition at 30 µM was at least 60%.
Consider `Cc1ccc(CNC(=O)c2cccc(Nc3ccc(-c4cccc(F)c4)cn3)c2)o1` [Compound 125, 3-{[5-(3-fluorophenyl)pyridin-2-yl]amino}-N-[(5-methylfuran-2-yl)methyl]benzamide], for which, at human ANO6 [1], the inhibition at 0.1 µM is below 30% and the inhibition at 1 µM is at least 60%. Also, the inhibition at 1 µM on human ANO6 [2] was at least 60%.
In the case of `Cc1ccc(CNC(=O)c2cccc(Nc3ncc(-c4ccc(C)o4)cn3)c2)o1` [Compound 92, N-[(5-methylfuran-2-yl)methyl]-3-{[5-(5-methylfuran-2-yl)pyrimidin-2-yl]amino}benzamide], the inhibition at 1 µM at human ANO6 [1] and at human ANO6 [2] was below 30% in each case.
Take `Cc1ccc(CNC(=O)c2cccc(Nc3ccc(-c4ccccc4)nc3)c2)o1` [Compound 6, N-[(5-methylfuran-2-yl)methyl]-3-[(6-phenylpyridin-3-yl)amino]benzamide]: the inhibition at 1 µM on human ANO6 [1] is 30 to 60%; on human ANO6 [2], at least 60%. Further, at human ANO6 [2], the inhibition at 30 µM is at least 60%.
Take `O=C(NC1CC1c1ccccc1)c1cccc(Nc2ccc(-c3ccccc3)nn2)c1` (centres unmarked) [Compound 67, N-(2-phenylcyclopropyl)-3-[(6-phenylpyridazin-3-yl)amino]benzamide]: at human ANO6 [1], the inhibition at 0.1 µM was at least 60% and the inhibition at 1 µM was at least 60%. Further, the inhibition at 1 µM on human ANO6 [2] is at least 60%.
As for `Cc1ccc(CNC(=O)c2cccc(Nc3ccc(-c4ccsc4)nn3)c2)o1` [Compound 73, N-[(5-methylfuran-2-yl)methyl]-3-{[6-(thiophen-3-yl)pyridazin-3-yl]amino}benzamide], on human ANO6 [1], the inhibition at 0.1 µM was below 30% and the inhibition at 1 µM was at least 60%. Moreover, the inhibition at 1 µM at human ANO6 [2] was at least 60%.
For the compound `CCCCNC(=O)c1cccc(Nc2ccc(-c3ccc(F)cc3)nn2)c1` [Compound A10], at human ANO6 [1], the inhibition at 0.1 µM is below 30% and the inhibition at 1 µM was below 30%. Further, at human ANO6 [2], the inhibition at 1 µM was at least 60% and the inhibition at 30 µM was at least 60%.
On to `CC(CCc1ccccc1)NC(=O)c1cccc(Nc2ccc(-c3ccccc3)nn2)c1` (centres unmarked) [Compound A58], for which, on human ANO6 [1], the inhibition at 0.1 µM is below 30% and the inhibition at 1 µM is below 30%. For the same compound, on human ANO6 [2], the inhibition at 1 µM was at least 60% and the inhibition at 30 µM is at least 60%.
`CC(C)CNC(=O)c1cccc(Nc2ccc(-c3ccccc3)nn2)c1` [Compound A66]: on human ANO6 [1], the inhibition at 0.1 µM is below 30% and the inhibition at 1 µM is below 30%. Further, at human ANO6 [2], the inhibition at 1 µM is at least 60% and the inhibition at 30 µM is at least 60%.
With `O=C(NC1CCCCC1)c1cccc(Nc2ccc(-c3ccccc3)nn2)c1` [Compound A62], at human ANO6 [1], the inhibition at 0.1 µM was below 30% and the inhibition at 1 µM lay within 30 to 60%. In addition, at human ANO6 [2], the inhibition at 1 µM fell in the range of 30 to 60% and the inhibition at 30 µM was at least 60%.
`O=C(NCc1ccc(Cl)c(Cl)c1)c1cccc(Nc2ccc(-c3ccccc3)nn2)c1` [Compound 36, N-(3,4-dichlorobenzyl)-3-((6-phenylpyridazin-3-yl)amino)benzamide]: at human ANO6 [1], the inhibition at 0.1 µM lay in the range of 30 to 60% and the inhibition at 1 µM was at least 60%. On human ANO6 [2], the inhibition at 1 µM is at least 60% and the inhibition at 30 µM is at least 60%.
Regarding `CCCCCCCNC(=O)c1cccc(Nc2ccc(-c3ccccc3)nn2)c1` [Compound A38], at human ANO6 [1], the inhibition at 0.1 µM is at least 60% and the inhibition at 1 µM is at least 60%. Moreover, at human ANO6 [2], the inhibition at 1 µM is at least 60% and the inhibition at 30 µM is at least 60%.
For the compound `CC(C)CNC(=O)c1cccc(Nc2ccc(-c3ccc(F)cc3)nn2)c1` [Compound A11], on human ANO6 [1], the inhibition at 0.1 µM was below 30% and the inhibition at 1 µM is below 30%. Further, on human ANO6 [2], the inhibition at 1 µM was at least 60% and the inhibition at 30 µM was at least 60%.
For the compound `O=C(NCc1cccs1)c1cccc(Nc2ccc(-c3ccccc3)nn2)c1` [Compound 39, 3-[(6-phenylpyridazin-3-yl)amino]-N-[(thiophen-2-yl)methyl]benzamide], the inhibition at 1 µM is below 30% at human ANO6 [1] and at least 60% at human ANO6 [2]. Moreover, the inhibition at 30 µM on human ANO6 [2] was at least 60%.
On to `O=C(NCCC1CCCCC1)c1cccc(Nc2ncc(-c3ccccc3)cn2)c1` [Compound 81, N-(2-cyclohexylethyl)-3-[(5-phenylpyrimidin-2-yl)amino]benzamide], for which, on human ANO6 [1], the inhibition at 0.1 µM lay in the range of 30 to 60% and the inhibition at 1 µM was at least 60%. For the same compound, the inhibition at 1 µM at human ANO6 [2] was at least 60%.
Consider `O=C(Nc1cccc(F)c1)c1cccc(Nc2ccc(-c3ccccc3)nn2)c1` [Compound 29, N-(3-fluorophenyl)-3-[(6-phenylpyridazin-3-yl)amino]benzamide], for which, at human ANO6 [1], the inhibition at 0.1 µM was in the range of 30 to 60% and the inhibition at 1 µM is at least 60%. On human ANO6 [2], the inhibition at 1 µM was at least 60% and the inhibition at 30 µM is at least 60%.
On to `O=C(NCCc1ccccc1)c1cccc(Nc2ncc(-c3ccccc3)cn2)c1` [Compound 52, N-(2-phenylethyl)-3-[(5-phenylpyrimidin-2-yl)amino]benzamide], for which the inhibition at 1 µM at human ANO6 [1] is 30 to 60%; at human ANO6 [2] it was at least 60%.
Turning to `O=C(NCc1ccccc1Cl)c1cccc(Nc2ccc(-c3ccccc3)nn2)c1` [Compound A46], on human ANO6 [1], the inhibition at 0.1 µM was below 30% and the inhibition at 1 µM is at least 60%. Further, at human ANO6 [2], the inhibition at 1 µM fell in the range of 30 to 60% and the inhibition at 30 µM was at least 60%.

What is called inhibition is the share of the control response that was lost under treatment.

For the origin of these results see patent US20230080054A1 (ILDONG PHARMACEUTICAL CO., LTD., priority 2021, published 2023).
